# Source: ChEMBL document CHEMBL1201862, “PubChem BioAssay data set” (2004)
# The source made the active and inactive calls.
# Legend:
# [1] = molecular target: T1, RNA-binding protein pos-1 (Caenorhabditis elegans, UniProt G5EF15); assay: inhibitors of POS-1/mex-3 RNA binding, dose response, biochemical, fluorescence polarization (AID 1964);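 note: purified POS-1 fused to maltose binding protein made in E. coli; potency of compounds blocking POS-1 binding to fluorescent RNA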
# T1 sequence (G5EF15 whole entry): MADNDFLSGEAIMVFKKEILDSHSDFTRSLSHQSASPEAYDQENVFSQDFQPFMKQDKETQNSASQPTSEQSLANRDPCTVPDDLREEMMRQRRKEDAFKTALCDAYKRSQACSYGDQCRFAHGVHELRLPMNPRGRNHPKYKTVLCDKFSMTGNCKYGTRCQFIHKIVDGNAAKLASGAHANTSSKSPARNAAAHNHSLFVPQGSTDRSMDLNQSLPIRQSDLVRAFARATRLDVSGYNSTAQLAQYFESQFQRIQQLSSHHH
# [2] = molecular target: T2, Zinc finger protein mex-5 (Caenorhabditis elegans, UniProt Q9XUB2); assay: MEX-5/TCR-2 RNA interaction inhibitors, dose response, biochemical, C. elegans, fluorescence polarization (AID 1960)
# T2 sequence (Q9XUB2 whole entry): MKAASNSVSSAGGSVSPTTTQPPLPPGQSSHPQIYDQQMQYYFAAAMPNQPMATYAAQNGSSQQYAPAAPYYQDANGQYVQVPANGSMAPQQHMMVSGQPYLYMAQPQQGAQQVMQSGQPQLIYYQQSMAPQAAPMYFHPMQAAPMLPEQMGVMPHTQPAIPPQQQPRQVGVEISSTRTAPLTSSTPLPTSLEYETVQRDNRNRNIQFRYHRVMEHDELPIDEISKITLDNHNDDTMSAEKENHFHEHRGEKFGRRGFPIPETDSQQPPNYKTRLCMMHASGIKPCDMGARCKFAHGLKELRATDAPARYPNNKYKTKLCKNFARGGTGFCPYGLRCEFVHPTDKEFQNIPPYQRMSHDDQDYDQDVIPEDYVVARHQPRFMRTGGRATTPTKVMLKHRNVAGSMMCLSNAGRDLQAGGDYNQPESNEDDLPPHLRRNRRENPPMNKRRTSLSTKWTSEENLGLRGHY
# [3] = molecular target: T3, Endoribonuclease toxin MazF (Escherichia coli K-12, UniProt P0AE70); assay: MazF toxin RNase activators, dose response, biochemical, fluorescence, single-stranded RNA substrate, uHTS hits (AID 588481); type: functional
# T3 sequence (P0AE70 whole entry): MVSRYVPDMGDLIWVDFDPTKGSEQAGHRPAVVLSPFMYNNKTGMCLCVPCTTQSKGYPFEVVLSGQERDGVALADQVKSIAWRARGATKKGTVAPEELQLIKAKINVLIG
# [4] = molecular target: T3, Endoribonuclease toxin MazF; assay: fluorescent RNA oligo signal without MazF, dose response, counter-screen for MazEF activator project, biochemical, fluorescence, single-stranded RNase substrate (AID 588502); type: functional
# [5] = molecular target: T4, Sentrin-specific protease 1 (Homo sapiens, UniProt Q9P0U3); assay: potency of human SENP1 inhibitors, dose response, biochemical, kinetic FRET (AID 651697); type: functional; settings: read-out: IC50_Mean
# T4 sequence (Q9P0U3 whole entry, the tested form may be a part): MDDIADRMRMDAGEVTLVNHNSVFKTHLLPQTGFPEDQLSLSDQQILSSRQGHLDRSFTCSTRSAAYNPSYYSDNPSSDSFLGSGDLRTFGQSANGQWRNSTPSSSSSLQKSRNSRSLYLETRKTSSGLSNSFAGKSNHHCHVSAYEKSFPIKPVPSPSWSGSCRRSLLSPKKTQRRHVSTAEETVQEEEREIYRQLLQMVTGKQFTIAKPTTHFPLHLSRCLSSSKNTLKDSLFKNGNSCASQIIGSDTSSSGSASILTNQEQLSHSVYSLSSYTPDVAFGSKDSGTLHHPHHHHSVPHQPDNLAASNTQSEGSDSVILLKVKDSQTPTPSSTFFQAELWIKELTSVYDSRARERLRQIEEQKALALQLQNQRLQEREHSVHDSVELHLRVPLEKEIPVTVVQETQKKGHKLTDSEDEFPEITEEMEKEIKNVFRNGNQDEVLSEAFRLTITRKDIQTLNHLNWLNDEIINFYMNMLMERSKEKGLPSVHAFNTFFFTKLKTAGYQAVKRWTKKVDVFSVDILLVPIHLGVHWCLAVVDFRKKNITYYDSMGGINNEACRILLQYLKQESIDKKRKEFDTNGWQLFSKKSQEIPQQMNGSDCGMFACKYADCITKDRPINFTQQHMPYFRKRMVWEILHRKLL
# [6] = molecular target: T4, Sentrin-specific protease 1; assay: Dose response confirmation of small molecule inhibitors of the catalytic domain of the SUMO protease, SENP1 in a FRET assay.; type: functional; settings: read-out: IC50_Mean
# [7] = molecular target: ATP-dependent translocase ABCB1 (Homo sapiens, UniProt P08183); assay: ABCB1 efflux pump inhibitor potency, dose response, Jurkat-DNR cells, JC-1, flow cytometry (AID 1689); type: functional
# Chain of ATP-dependent translocase ABCB1 (P08183 whole entry): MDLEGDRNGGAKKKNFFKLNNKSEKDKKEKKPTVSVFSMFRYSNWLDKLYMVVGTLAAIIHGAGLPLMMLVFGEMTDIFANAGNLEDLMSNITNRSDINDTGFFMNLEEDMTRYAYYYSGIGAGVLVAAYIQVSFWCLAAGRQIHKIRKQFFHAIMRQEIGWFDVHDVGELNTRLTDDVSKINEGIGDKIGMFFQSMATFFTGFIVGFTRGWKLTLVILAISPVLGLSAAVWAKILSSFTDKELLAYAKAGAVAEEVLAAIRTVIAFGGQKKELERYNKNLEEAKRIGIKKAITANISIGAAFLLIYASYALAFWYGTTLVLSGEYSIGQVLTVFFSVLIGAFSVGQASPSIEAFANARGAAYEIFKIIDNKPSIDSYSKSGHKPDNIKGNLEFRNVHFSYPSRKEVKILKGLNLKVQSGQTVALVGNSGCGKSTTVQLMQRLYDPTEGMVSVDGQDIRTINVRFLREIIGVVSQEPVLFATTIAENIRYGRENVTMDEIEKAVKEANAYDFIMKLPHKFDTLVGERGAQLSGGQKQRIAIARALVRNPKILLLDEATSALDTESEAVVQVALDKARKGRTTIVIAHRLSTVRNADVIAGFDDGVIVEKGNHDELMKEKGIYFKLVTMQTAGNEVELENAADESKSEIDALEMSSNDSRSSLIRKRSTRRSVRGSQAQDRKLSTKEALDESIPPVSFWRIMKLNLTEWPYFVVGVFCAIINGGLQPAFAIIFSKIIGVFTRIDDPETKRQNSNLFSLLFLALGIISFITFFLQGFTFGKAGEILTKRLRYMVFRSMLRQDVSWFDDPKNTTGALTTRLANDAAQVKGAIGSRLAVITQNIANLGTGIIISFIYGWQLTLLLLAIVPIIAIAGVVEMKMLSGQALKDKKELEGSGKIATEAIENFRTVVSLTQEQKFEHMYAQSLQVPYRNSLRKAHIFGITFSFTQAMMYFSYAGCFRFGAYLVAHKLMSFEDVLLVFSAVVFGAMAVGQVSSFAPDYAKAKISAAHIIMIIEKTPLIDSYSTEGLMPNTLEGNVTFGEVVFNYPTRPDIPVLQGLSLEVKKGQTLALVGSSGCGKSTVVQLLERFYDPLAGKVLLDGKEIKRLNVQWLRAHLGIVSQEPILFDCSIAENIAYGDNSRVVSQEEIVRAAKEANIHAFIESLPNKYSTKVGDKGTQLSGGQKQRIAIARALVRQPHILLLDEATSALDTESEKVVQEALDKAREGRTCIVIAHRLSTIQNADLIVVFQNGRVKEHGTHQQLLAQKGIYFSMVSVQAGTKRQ
# [8] = molecular target: Broad substrate specificity ATP-binding cassette transporter ABCG2 (Homo sapiens, UniProt Q9UNQ0); assay: ABCG2 efflux pump inhibitors, dose response, Ig-MXP3 cells, flow cytometry (AID 1690); type: functional
# Chain of Broad substrate specificity ATP-binding cassette transporter ABCG2 (Q9UNQ0 whole entry): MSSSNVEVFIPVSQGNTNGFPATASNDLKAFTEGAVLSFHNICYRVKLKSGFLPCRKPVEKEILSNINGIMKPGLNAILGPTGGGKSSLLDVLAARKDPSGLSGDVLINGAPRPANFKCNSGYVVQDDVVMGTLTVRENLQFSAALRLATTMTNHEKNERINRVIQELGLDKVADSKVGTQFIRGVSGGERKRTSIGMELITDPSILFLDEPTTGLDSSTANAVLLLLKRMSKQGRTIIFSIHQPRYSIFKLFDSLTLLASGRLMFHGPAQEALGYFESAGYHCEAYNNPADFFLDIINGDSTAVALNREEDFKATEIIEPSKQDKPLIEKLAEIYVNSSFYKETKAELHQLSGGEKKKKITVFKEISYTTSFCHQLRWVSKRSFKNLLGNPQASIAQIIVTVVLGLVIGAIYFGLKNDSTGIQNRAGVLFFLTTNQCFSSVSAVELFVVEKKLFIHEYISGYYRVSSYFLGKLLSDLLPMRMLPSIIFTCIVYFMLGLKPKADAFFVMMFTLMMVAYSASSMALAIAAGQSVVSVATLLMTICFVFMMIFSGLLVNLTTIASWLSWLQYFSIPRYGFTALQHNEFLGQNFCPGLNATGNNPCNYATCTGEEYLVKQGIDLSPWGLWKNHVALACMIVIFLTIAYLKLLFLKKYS
# [9] = molecular target: Beta-lactamase (Salmonella choleraesuis (strain SC-B67), UniProt Q5J463); assay: Epi-absorbance-based counterscreen for selective VIM-2 inhibitors: dose response biochemical high throughput screening assay to identify inhibitors of TEM-1 serine-beta-lactamase.
# Chain of Beta-lactamase (Salmonella choleraesuis (strain SC-B67), UniProt Q5J463) (Q5J463 whole entry): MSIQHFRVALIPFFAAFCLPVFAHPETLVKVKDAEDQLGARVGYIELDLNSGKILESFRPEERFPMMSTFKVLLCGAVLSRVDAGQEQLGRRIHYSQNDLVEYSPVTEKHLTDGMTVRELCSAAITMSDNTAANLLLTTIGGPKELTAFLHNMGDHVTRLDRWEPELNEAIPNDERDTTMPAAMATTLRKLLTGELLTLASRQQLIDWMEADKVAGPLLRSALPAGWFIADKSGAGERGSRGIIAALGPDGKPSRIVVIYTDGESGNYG
# [10] = molecular target: T5, Beta-lactamase (Pseudomonas aeruginosa, UniProt Q79MP6); assay: IMP-1 metallo-beta-lactamase inhibitors, dose response, selectivity assay for VIM-2 inhibitor project, biochemical, epi-absorbance (AID 1920)
# T5 sequence (Q79MP6 whole entry): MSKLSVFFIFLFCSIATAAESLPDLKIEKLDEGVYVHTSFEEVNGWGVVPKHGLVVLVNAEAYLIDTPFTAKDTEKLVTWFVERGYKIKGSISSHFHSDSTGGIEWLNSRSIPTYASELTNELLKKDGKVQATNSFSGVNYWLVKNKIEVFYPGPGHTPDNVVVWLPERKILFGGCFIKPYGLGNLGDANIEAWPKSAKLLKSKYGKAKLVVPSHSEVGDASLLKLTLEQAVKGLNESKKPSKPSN
# [11] = molecular target: T5, Beta-lactamase; assay: […] counterscreen for selective VIM-2 inhibitors: dose response biochemical high throughput screening assay to identify inhibitors of IMP-1 metallo-beta-lactamase.
# [12] = molecular target: Mu-type opioid receptor (Homo sapiens, UniProt P35372); type: functional, cell-based;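 note: U2OS cells with beta-arrestin recruitment to OPRM1 by beta-gal complementation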
# Chain of Mu-type opioid receptor (P35372 whole entry): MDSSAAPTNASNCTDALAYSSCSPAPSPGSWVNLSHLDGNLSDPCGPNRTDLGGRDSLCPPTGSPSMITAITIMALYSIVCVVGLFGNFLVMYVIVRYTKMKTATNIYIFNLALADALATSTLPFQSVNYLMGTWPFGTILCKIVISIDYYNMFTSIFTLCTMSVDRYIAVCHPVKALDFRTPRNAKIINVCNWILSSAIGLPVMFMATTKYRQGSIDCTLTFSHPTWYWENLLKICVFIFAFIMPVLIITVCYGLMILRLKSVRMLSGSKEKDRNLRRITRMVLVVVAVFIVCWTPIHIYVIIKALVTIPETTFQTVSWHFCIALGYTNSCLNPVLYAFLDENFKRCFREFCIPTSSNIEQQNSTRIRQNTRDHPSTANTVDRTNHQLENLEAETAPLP
# [13] = molecular target: 5-hydroxytryptamine receptor 2A (Mus musculus, UniProt P35363); type: functional, cell-based;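 note: CHO-K1 cells with tagged receptor and beta-arrestin; agonist potency measured as compound-induced activation of the receptor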
# Chain of 5-hydroxytryptamine receptor 2A (P35363 whole entry): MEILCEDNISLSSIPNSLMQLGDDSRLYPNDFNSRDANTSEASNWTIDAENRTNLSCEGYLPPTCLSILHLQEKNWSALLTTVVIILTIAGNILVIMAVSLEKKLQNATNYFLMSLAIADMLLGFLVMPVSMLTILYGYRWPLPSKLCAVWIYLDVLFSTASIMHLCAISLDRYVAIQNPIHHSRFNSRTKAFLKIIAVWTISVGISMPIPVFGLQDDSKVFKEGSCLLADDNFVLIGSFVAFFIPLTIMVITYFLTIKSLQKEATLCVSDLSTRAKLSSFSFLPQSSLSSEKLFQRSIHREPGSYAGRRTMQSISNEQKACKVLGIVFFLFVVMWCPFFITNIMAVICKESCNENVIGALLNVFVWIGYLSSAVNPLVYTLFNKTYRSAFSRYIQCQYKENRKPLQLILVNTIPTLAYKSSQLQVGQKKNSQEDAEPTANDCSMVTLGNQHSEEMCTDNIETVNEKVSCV
# [14] = molecular target: T6, Caspase-3 (Homo sapiens, UniProt P42574); type: functional;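 note: Dose-response selectivity test against caspase-3 for candidate inhibitors of sentrin-specific proteases (SENPs)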
# T6 sequence (P42574 whole entry): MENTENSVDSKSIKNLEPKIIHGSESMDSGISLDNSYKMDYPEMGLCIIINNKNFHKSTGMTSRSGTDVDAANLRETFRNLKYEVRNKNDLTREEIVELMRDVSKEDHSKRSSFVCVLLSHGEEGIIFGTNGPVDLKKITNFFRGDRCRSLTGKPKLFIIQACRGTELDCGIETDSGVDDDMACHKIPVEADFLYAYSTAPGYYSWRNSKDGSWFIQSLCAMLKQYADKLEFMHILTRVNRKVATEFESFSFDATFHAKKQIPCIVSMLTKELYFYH
# [15] = molecular target: T7, Sentrin-specific protease 7 (Homo sapiens, UniProt Q9BQF6); type: functional;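 note: Luminescence-based dose-response confirmation of ultra-high-throughput screening hits, measuring inhibition of SENP7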
# T7 sequence (Q9BQF6 whole entry): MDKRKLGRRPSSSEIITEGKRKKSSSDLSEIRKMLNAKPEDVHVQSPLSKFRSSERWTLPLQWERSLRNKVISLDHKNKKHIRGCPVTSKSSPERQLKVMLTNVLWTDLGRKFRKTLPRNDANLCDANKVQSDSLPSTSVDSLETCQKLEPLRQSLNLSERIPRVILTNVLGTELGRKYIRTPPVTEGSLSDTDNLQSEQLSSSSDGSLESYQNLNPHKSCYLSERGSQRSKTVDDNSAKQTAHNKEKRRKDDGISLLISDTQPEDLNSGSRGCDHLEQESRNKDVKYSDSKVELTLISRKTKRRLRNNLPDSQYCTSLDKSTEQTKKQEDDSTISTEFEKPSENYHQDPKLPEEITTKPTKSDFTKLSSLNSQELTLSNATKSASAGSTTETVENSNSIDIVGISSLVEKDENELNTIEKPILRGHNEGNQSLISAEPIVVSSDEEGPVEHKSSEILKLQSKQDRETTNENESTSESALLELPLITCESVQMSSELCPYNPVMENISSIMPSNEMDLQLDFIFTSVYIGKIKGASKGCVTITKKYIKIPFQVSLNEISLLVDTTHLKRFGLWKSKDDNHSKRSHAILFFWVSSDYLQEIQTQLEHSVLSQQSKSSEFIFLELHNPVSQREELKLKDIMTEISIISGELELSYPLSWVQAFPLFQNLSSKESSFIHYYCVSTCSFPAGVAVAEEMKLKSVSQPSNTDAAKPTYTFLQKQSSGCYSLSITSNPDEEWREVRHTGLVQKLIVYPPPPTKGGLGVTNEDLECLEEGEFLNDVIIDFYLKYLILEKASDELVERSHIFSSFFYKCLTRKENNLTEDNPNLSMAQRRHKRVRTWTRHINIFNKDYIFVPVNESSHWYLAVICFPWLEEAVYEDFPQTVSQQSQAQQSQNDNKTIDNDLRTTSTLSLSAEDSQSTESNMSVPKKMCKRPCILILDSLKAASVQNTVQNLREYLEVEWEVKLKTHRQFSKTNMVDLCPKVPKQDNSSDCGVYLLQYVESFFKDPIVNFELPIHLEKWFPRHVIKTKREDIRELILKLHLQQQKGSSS
# [16] = molecular target: T8, Sentrin-specific protease 6 (Homo sapiens, UniProt Q9GZR1); type: functional;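 note: Luminescence-based dose-response confirmatory assay of SENP6 inhibition, following up an ultra-high-throughput screen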
# T8 sequence (Q9GZR1 whole entry): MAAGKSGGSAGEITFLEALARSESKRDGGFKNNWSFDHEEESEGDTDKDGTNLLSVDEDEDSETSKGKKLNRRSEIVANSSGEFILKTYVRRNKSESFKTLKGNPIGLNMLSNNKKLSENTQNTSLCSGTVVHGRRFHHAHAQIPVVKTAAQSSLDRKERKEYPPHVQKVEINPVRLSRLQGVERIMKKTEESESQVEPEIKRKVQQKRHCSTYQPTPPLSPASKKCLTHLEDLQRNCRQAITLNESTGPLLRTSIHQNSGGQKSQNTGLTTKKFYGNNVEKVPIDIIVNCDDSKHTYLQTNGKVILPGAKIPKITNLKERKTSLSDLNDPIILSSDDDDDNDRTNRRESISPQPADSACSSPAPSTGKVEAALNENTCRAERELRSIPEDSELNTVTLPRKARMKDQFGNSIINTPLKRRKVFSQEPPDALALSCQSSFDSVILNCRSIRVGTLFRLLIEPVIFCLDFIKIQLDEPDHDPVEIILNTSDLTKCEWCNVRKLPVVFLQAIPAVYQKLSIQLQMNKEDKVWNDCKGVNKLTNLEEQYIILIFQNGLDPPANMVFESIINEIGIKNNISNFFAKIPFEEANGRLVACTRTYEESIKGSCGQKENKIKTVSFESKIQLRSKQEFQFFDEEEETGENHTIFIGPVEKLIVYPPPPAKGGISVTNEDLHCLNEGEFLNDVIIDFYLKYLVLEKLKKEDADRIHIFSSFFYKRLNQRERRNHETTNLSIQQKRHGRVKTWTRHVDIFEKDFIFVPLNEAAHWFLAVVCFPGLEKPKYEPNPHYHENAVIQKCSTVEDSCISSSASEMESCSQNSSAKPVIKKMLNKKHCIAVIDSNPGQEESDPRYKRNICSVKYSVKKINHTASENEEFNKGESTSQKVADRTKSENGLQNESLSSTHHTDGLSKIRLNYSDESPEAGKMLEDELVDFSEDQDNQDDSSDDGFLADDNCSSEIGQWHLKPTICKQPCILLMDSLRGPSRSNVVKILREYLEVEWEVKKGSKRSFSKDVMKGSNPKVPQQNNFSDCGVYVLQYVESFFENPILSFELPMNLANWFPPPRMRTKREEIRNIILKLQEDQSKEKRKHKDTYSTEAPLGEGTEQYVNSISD
# [17] = molecular target: T9, Sentrin-specific protease 8 (Homo sapiens, UniProt Q96LD8); type: functional;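 note: luminescence read-out of SENP8 inhibition, dose-response confirmation following an ultra-high-throughput screen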
# T9 sequence (Q96LD8 whole entry): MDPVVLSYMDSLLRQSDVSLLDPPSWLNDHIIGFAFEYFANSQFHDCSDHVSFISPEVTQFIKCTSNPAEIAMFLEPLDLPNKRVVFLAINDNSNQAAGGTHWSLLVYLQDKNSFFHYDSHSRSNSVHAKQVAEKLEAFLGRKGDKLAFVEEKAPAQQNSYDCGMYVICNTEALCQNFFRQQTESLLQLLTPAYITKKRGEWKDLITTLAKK
# [18] = molecular target: T10, Low molecular weight phosphotyrosine protein phosphatase (Homo sapiens, UniProt P24666); type: functional; settings: read-out: IC50_Mean
# T10 sequence (P24666 whole entry): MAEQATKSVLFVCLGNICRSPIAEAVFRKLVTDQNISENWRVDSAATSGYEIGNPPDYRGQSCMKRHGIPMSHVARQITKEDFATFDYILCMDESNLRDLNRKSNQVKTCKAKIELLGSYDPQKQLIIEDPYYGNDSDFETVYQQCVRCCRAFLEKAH
# [19] = molecular target: T10, Low molecular weight phosphotyrosine protein phosphatase; type: functional; settings: read-out: IC50_Mean; remark: listed apart in the source
# [20] = molecular target: T11, Tyrosine-protein phosphatase non-receptor type 22 (Homo sapiens, UniProt Q9Y2R2); assay: LYP phosphatase inhibition for selectivity, dose response, selectivity assay for LMPTP inhibitor project, biochemical, fluorescence, LYP catalytic domain (AID 652006); type: functional; settings: read-out: IC50_Mean
# T11 sequence (Q9Y2R2 whole entry): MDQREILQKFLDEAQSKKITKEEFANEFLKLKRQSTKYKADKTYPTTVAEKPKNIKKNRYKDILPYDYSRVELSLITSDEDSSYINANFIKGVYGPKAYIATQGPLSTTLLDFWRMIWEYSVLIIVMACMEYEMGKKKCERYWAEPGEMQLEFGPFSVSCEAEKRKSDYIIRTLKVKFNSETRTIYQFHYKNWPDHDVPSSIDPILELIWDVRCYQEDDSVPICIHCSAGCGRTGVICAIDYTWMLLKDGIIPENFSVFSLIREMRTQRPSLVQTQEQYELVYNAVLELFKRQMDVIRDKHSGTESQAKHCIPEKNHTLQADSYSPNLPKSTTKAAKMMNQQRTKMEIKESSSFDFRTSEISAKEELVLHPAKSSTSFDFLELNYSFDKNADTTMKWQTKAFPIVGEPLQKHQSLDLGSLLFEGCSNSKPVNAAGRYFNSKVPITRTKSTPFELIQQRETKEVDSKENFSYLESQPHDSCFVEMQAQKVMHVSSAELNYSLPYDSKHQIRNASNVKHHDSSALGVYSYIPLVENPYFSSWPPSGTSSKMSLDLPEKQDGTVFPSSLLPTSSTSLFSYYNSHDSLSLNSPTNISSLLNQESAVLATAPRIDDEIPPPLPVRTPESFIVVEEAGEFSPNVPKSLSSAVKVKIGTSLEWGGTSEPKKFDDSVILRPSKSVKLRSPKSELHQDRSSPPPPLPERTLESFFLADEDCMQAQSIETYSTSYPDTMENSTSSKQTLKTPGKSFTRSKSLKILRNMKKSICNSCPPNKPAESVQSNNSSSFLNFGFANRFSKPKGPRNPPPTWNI
compound,measurement,setting,value
COc1ccc2c(c1)c1nc3ccccc3nc1n2Cc1ccc(OC)c(OC)c1,EC50,[1],32.6 µM (active)
same,EC50,[2],43.1 µM (active)
same,EC50,[3],> 99 µM (inactive)
same,EC50,[4],87.9 µM (inactive)
same,IC50,[5],14.1 µM (active)
same,IC50,[6],6.84 µM (active)
N#Cc1ccc(-c2ccc(OCC(=O)NCCc3ccccc3)cc2)cc1,EC50,[7],11.1 µM (inactive)
same,EC50,[8],3.76 µM (active)
CC1=C(C(=O)O)N2C(=O)C(NC(=O)c3nn(C)cc3[N+](=O)[O-])C2SC1 (stereo not given),IC50,[9],> 59.6 µM (inactive)
same,IC50,[10],> 59.6 µM (inactive)
same,IC50,[11],> 59.6 µM (inactive)
O=C(C1CCN(CCCc2ccccc2)CC1)N1CCCCC1,EC50,[12],92.5 µM (inactive)
same,EC50,[13],76.1 µM (inactive)
O=C(/C=C/c1ccc(Br)cc1)NC(=O)c1ccccc1O,IC50,[14],> 100 µM (inactive)
same,IC50,[15],8.1 µM (active)
same,IC50,[16],15.2 µM (active)
same,IC50,[17],26.9 µM (active)
same,IC50,[18],22.2 µM (inactive)
same,IC50,[19],9.98 µM (active)
same,IC50,[20],43.6 µM (inactive)
